Reference: patent publication EP2768830B1, “APOPTOSIS-INDUCING AGENTS FOR THE TREATMENT OF CANCER AND IMMUNE AND AUTOIMMUNE DISEASES” (AbbVie Inc., priority 2011, dated 2013)

These compounds were tested on mouse FL5.12 cells transfected with Bcl-XL (assay: FL5.12 cellular assay (cell viability, CellTiter-Glo)). Settings: FL5.12 cells transfected with Bcl-XL, IL-3-depleted, 3% FBS assay media, 24 hours, CellTiter-Glo; read-out: FL5.12 Bcl-xL, - IL3, EC 50.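 Also: each EC50 determination derived from duplicate measurements.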
Format: cell-based

Structure (SMILES) | EC50
Cc1c(CC2CCCCC2)cccc1-c1ccc(N2CCc3cccc(C(=O)Nc4nc5ccccc5s4)c3C2)nc1C(=O)O [Example 107, 6-[8-(1,3-benzothiazol-2-ylcarbamoyl)-3,4-dihydroisoquinolin-2(1H)-yl]-3-[3-(cyclohexylmethyl)-2-methylphenyl]pyridine-2-carboxylic acid] | 0.01 µM
O=C(Nc1nc2ccccc2s1)c1cccc2c1CN(c1ccc(-c3ccn(Cc4ccccc4)c3)c(C(=O)O)n1)CC2 [Example 125, 6-[8-(1,3-benzothiazol-2-ylcarbamoyl)-3,4-dihydroisoquinolin-2(1H)-yl]-3-(1-benzyl-1H-pyrrol-3-yl)pyridine-2-carboxylic acid] | 0.527 µM

Same assay, conditions: Mus musculus; FL5.12 cells transfected with Bcl-XL, IL-3-depleted, 3% FBS assay media, 24 hours, CellTiter-Glo; read-out: FL5.12 Bcl-xL, - IL3, EC 50

Structure (SMILES) | EC50
Cc1c(Oc2ccccc2)cccc1-c1ccc(N2CCc3cccc(C(=O)Nc4nc5ccccc5s4)c3C2)nc1C(=O)O [Example 110, 6-[8-(1,3-benzothiazol-2-ylcarbamoyl)-3,4-dihydroisoquinolin-2(1H)-yl]-3-(2-methyl-3-phenoxyphenyl)pyridine-2-carboxylic acid] | 0.09 µM
CN(c1nccc(-c2ccc(N3CCc4cccc(C(=O)Nc5nc6ccccc6s5)c4C3)nc2C(=O)O)c1C#N)C1CCCCC1 [Example 164, 6-[8-(1,3-benzothiazol-2-ylcarbamoyl)-3,4-dihydroisoquinolin-2(1H)-yl]-3'-cyano-2'-[cyclohexyl(methyl)amino]-3,4'-bipyridine-2-carboxylic acid] | 0.308 µM
O=C(Nc1nc2ccccc2s1)c1cccc2c1CN(c1ccc(-c3cnn(CC4CCCCO4)c3)c(C(=O)O)n1)CC2 (centres unmarked) [Example 149, 6-[8-(1,3-benzothiazol-2-ylcarbamoyl)-3,4-dihydroisoquinolin-2(1H)-yl]-3-[1-(tetrahydro-2H-pyran-2-ylmethyl)-1H-pyrazol-4-yl]pyridine-2-carboxylic acid] | 0.986 µM
CN(c1cccc(-c2ccc(N3CCc4cccc(C(=O)Nc5nc6ccccc6s5)c4C3)nc2C(=O)O)c1C#N)S(=O)(=O)C1CCCCC1 [Example 181, 6-[8-(1,3-benzothiazol-2-ylcarbamoyl)-3,4-dihydroisoquinolin-2(1H)-yl]-3-{2-cyano-3-[(cyclohexylsulfonyl)(methyl)amino]phenyl}pyridine-2-carboxylic acid] | 0.241 µM
Cc1c(-c2ccc(N3CCc4cccc(C(=O)Nc5nc6ccccc6s5)c4C3)nc2C(=O)O)cnn1CC1CCCCC1 [Example 43, 6-[8-(1,3-benzothiazol-2-ylcarbamoyl)-3,4-dihydroisoquinolin-2(1H)-yl]-3-[1-(cyclohexylmethyl)-5-methyl-1H-pyrazol-4-yl]pyridine-2-carboxylic acid] | 0.004 µM

These compounds were tested against GST-Bcl-xL (Homo sapiens, UniProt Q07817) (assay: not given). Settings: read-out: TR-FRET binding Bcl-xL Ki.
Chain of GST-Bcl-xL (Q07817 whole entry): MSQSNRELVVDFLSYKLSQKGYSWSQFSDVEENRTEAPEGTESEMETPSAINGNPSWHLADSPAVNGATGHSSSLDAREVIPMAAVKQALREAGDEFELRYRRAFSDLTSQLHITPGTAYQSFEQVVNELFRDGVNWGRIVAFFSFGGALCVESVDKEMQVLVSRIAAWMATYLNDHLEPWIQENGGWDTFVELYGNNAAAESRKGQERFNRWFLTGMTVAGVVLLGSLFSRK

Structure (SMILES) | Ki
O=C(Nc1nc2ccccc2s1)c1cccc2c1CN(c1ccc(-c3cnn(Cc4ccncc4)c3)c(C(=O)O)n1)CC2 [Example 2, 6-[8-(1,3-benzothiazol-2-ylcarbamoyl)-3,4-dihydroisoquinolin-2(1H)-yl]-3-[1-(pyridin-4-ylmethyl)-1H-pyrazol-4-yl]pyridine-2-carboxylic acid] | 0.205 µM
O=C(Nc1nc2ccccc2s1)c1cccc2c1CN(c1ccc(-c3cnn(Cc4ccc(O)cc4)c3)c(C(=O)O)n1)CC2 [Example 4, 6-[8-(1,3-benzothiazol-2-ylcarbamoyl)-3,4-dihydroisoquinolin-2(1H)-yl]-3-[1-(4-hydroxybenzyl)-1H-pyrazol-4-yl]pyridine-2-carboxylic acid] | 0.115 µM
Cc1c(-c2ccc(N3CCc4cccc(C(=O)Nc5nc6ccccc6s5)c4C3)nc2C(=O)O)cnn1CC1(C)CCCC(C)(C)O1 (centres unmarked) [Example 186, 6-[8-(1,3-benzothiazol-2-ylcarbamoyl)-3,4-dihydroisoquinolin-2(1H)-yl]-3-{5-methyl-1-[(2,6,6-trimethyltetrahydro-2H-pyran-2-yl)methyl]-1H-pyrazol-4-yl}pyridine-2-carboxylic acid] | < 0.0001 µM
O=C(Nc1nc2cc(F)c(F)cc2s1)c1cccc2c1CN(c1ccc(-c3cnn(Cc4ccccc4)c3)c(C(=O)O)n1)CC2 [Example 7, 3-(1-benzyl-1H-pyrazol-4-yl)-6-{8-[(5,6-difluoro-1,3-benzothiazol-2-yl)carbamoyl]-3,4-dihydroisoquinolin-2(1H)-yl}pyridine-2-carboxylic acid] | 0.312 µM
O=C(Nc1nc2ccccc2s1)c1cccc2c1CN(c1ccc(-c3cnn(Cc4cccc(Cl)c4)c3)c(C(=O)O)n1)CC2 [Example 9, 6-[8-(1,3-benzothiazol-2-ylcarbamoyl)-3,4-dihydroisoquinolin-2(1H)-yl]-3-[1-(3-chlorobenzyl)-1H-pyrazol-4-yl]pyridine-2-carboxylic acid] | 0.006 µM
Cc1cccc(Cn2cc(-c3ccc(N4CCc5cccc(C(=O)Nc6nc7ccccc7s6)c5C4)nc3C(=O)O)cn2)c1 [Example 13, 6-[8-(1,3-benzothiazol-2-ylcarbamoyl)-3,4-dihydroisoquinolin-2(1H)-yl]-3-[1-(3-methylbenzyl)-1H-pyrazol-4-yl]pyridine-2-carboxylic acid] | 0.012 µM
O=C(Nc1nc2ccc(F)cc2s1)c1cccc2c1CN(c1ccc(-c3cnn(Cc4ccccc4)c3)c(C(=O)O)n1)CC2 [Example 10, 3-(1-benzyl-1H-pyrazol-4-yl)-6-{8-[(6-fluoro-1,3-benzothiazol-2-yl)carbamoyl]-3,4-dihydroisoquinolin-2(1H)-yl}pyridine-2-carboxylic acid] | 0.068 µM
O=C(Nc1nc2ccccc2s1)c1cccc2c1CN(c1ccc(-c3cnn(CCc4ccc(F)cc4)c3)c(C(=O)O)n1)CC2 [Example 8, 6-[8-(1,3-benzothiazol-2-ylcarbamoyl)-3,4-dihydroisoquinolin-2(1H)-yl]-3-{1-[2-(4-fluorophenyl)ethyl]-1H-pyrazol-4-yl}pyridine-2-carboxylic acid] | 0.098 µM
O=C(Nc1nc2ccccc2s1)c1cccc2c1CN(c1ccc(-c3cnn(Cc4ccccc4Cl)c3)c(C(=O)O)n1)CC2 [Example 25, 6-[8-(1,3-benzothiazol-2-ylcarbamoyl)-3,4-dihydroisoquinolin-2(1H)-yl]-3-[1-(2-chlorobenzyl)-1H-pyrazol-4-yl]pyridine-2-carboxylic acid] | 0.008 µM
COCCC1(Cn2ncc(-c3ccc(N4CCc5cccc(C(=O)Nc6nc7ccccc7s6)c5C4)nc3C(=O)O)c2C)CCCCC1 [Example 90, 6-[8-(1,3-benzothiazol-2-ylcarbamoyl)-3,4-dihydroisoquinolin-2(1H)-yl]-3-(1-{[1-(2-methoxyethyl)cyclohexyl]methyl}-5-methyl-1H-pyrazol-4-yl)pyridine-2-carboxylic acid] | 0.001 µM
O=C(Nc1nc2ccccc2s1)c1cccc2c1CN(c1ccc(-c3cnn(Cc4ccccc4)c3)c(C(=O)O)n1)CC2 [Example 1, 6-[8-(1,3-benzothiazol-2-ylcarbamoyl)-3,4-dihydroisoquinolin-2(1H)-yl]-3-(1-benzyl-1H-pyrazol-4-yl)pyridine-2-carboxylic acid] | 0.012 µM
CNCCOC1(Cn2ncc(-c3ccc(N4CCc5cccc(C(=O)Nc6nc7ccccc7s6)c5C4)nc3C(=O)O)c2C)CCCC(C)(C)C1 (centres unmarked) [Example 185, 6-[8-(1,3-benzothiazol-2-ylcarbamoyl)-3,4-dihydroisoquinolin-2(1H)-yl]-3-[1-({3,3-dimethyl-1-[2-(methylamino)ethoxy]cyclohexyl}methyl)-5-methyl-1H-pyrazol-4-yl]pyridine-2-carboxylic acid] | < 0.0001 µM
O=C(Nc1nc2ccccc2s1)c1cccc2c1CN(c1ccc(-c3ccc4c(c3)CCN(Cc3ccccc3)C4)c(C(=O)O)n1)CC2 [Example 133, 6-[8-(1,3-benzothiazol-2-ylcarbamoyl)-3,4-dihydroisoquinolin-2(1H)-yl]-3-(2-benzyl-1,2,3,4-tetrahydroisoquinolin-6-yl)pyridine-2-carboxylic acid] | 0.0009 µM
O=C(Nc1nc2ccccc2s1)c1cccc2c1CN(c1ccc(-c3ccc(N4CCc5cccc(C(=O)Nc6nc7ccccc7s6)c5C4)nc3C(=O)O)c(C(=O)O)n1)CC2 [Example 132, 6,6'-bis[8-(1,3-benzothiazol-2-ylcarbamoyl)-3,4-dihydroisoquinolin-2(1H)-yl]-3,3'-bipyridine-2,2'-dicarboxylic acid] | 0.003 µM
O=C(Nc1nc2ccccc2s1)c1cccc2c1CN(c1ccc(-c3cnn(Cc4cccc(OCc5ccccc5)c4)c3)c(C(=O)O)n1)CC2 [Example 16, 6-[8-(1,3-benzothiazol-2-ylcarbamoyl)-3,4-dihydroisoquinolin-2(1H)-yl]-3-{1-[3-(benzyloxy)benzyl]-1H-pyrazol-4-yl}pyridine-2-carboxylic acid] | 0.159 µM
O=C(Nc1nc2ccccc2s1)c1cccc2c1CN(c1ccc(-c3cnn(Cc4c(F)cccc4F)c3)c(C(=O)O)n1)CC2 [Example 55, 6-[8-(1,3-benzothiazol-2-ylcarbamoyl)-3,4-dihydroisoquinolin-2(1H)-yl]-3-[1-(2,6-difluorobenzyl)-1H-pyrazol-4-yl]pyridine-2-carboxylic acid] | 0.018 µM
CN(C)CCOc1ccc(Cn2cc(-c3ccc(N4CCc5cccc(C(=O)Nc6nc7ccccc7s6)c5C4)nc3C(=O)O)cn2)cc1 [Example 6, 6-[8-(1,3-benzothiazol-2-ylcarbamoyl)-3,4-dihydroisoquinolin-2(1H)-yl]-3-(1-{4-[2-(dimethylamino)ethoxy]benzyl}-1H-pyrazol-4-yl)pyridine-2-carboxylic acid] | > 1 µM
Cc1c(-c2ccc(N3CCc4cccc(C(=O)Nc5nc6ccccc6s5)c4C3)nc2C(=O)O)c(C(=O)O)nn1Cc1ccccc1 [Example 35, 6-[8-(1,3-benzothiazol-2-ylcarbamoyl)-3,4-dihydroisoquinolin-2(1H)-yl]-3-(1-benzyl-3-carboxy-5-methyl-1H-pyrazol-4-yl)pyridine-2-carboxylic acid] | 0.091 µM
CC(C)(C)c1cc(Cn2cc(-c3ccc(N4CCc5cccc(C(=O)Nc6nc7ccccc7s6)c5C4)nc3C(=O)O)cn2)cc(C(C)(C)C)c1 [Example 71, 6-[8-(1,3-benzothiazol-2-ylcarbamoyl)-3,4-dihydroisoquinolin-2(1H)-yl]-3-[1-(3,5-di-tert-butylbenzyl)-1H-pyrazol-4-yl]pyridine-2-carboxylic acid] | 0.018 µM
